Assay results taken from patent US11793823B2, “Compounds and pharmaceutical uses thereof” (SyneuRx International (Taiwan) Corp., priority 2020, dated 2023).
Like-named read-outs stand apart in the source and are kept apart here.

Experiments:
[1] = target: human D-amino acid oxidase (hDAAO) (Homo sapiens (Human), UniProt P14920); assay: In vitro human D-amino acid oxidase (hDAAO) activity, D-Serine/Amplex Red fluorescence; type: biochemical; conditions: D-Serine substrate, 20 min
Outline: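 Recombinant hDAAO activity with D-serine as substrate; H2O2 was coupled via HRP to Amplex Red and fluorescence read at ex 530/em 590 nm at 0 and 20 min, dark, room temperature, Tris pH 8.5 with FAD. Inhibition came from the 20–0 min signal change relative to DMSO, and IC50 from nonlinear fits of 3-fold dilutions run in triplicate.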

MK-801 treated mice [2] = assay: Open field test, MK-801 induced hyper-locomotion; type: in vivo; conditions: for relief of MK801-induced hyperactivity: MK-801 0.2 mg/kg i.p., open field
Description: (§1) C57BL/6J male mice were group housed (3-5 mice per cage) with food and water available ad libitum in polysulfone ventilated cages (Alternative Design, AR, USA) in the animal room of SyneuRx. The colony was maintained on a 12/12-h light/dark cycle at the temperature of 22±2° C. and all behavioral studies were performed during the dark cycle. All animals used in this study were adult mice (at least 2.5 months of age). All animal procedures were performed according to the protocols approved by Institutional Animal Care and Use Committee (IACUC).
(§2) The mice were randomly assigned into five groups for open field test, Group 1: vehicle control, Group 2: MK-801, Group 3: Compound 66 at 10 mg/kg+MK-801, Group 4: Compound 66 at 30 mg/kg+MK-801, Group 5: Compound 66 at 100 mg/kg+MK-801. Mice at Group 2-5 received an acute administration of MK-801 (Sigma-Aldrich USA), a NMDA receptor antagonist, dissolved in normal saline, at 0.2 mg/kg for open field. For pre-pulse inhibition (PPI) test, animal was randomly assigned for four groups, Group 1: vehicle control, Group 2: MK-801, Group 3: Compound 66 at 3 mg/kg+MK-801, Group 4: Compound 66 at 10 mg/kg. Group 2-4 was received 0.3 mg/kg, MK-801. MK-801 was administrated by i.p. injection 20 minutes prior to open field and PPI tests. Test article, compound 66 (dissolved in ddH2O with 65% PEG400 and 10% DMSO), was orally treated 20 minutes prior to the MK-801 administration.
The open field task is a common measurement of novelty induced exploratory behavior and general activity in both mice and rats. The objective of this experiment was to evaluate the efficacy of compound 66 on attenuating the MK-801 induced hyper-locomotion. In this study, the mice were placed in a Plexiglas cage (37.5 cm×21.5 cm×18 cm) under 50-65 lux light intensity. Their spontaneous locomotor activities were measured for 60 minutes using the Photobeam Activity System (PAS)-open field (San Diego Instruments, San Diego, CA, USA). The total number of photo beam breaks of each mouse was measured as an index of locomotion activity.
as §2, with “74” for “66”, “field test.” for “field.”
(§3) All mice were tested with open field and pre-pulse inhibition tasks. The open field and pre-pulse inhibition tasks were used to evaluate the efficacy of the compound 74 on attenuating the MK-801 induced hyper-locomotion and deficit of sensorimotor gating function in mice, respectively. The apparatus and recording method of open field and pre-pulse inhibition task were as described above in Example 45.
Mice at Group 2-5 received an acute administration of MK-801 (Sigma-Aldrich USA), a NMDA receptor antagonist, dissolved in normal saline, at 0.2 mg/kg for open field test. […] Group […] was received 0.3 mg/kg, MK-801. MK-801 was administrated by i.p. injection 20 minutes prior to open field and PPI tests.
The open field task is a common measurement of novelty induced exploratory behavior and general activity in both mice and rats. […] In this study, the mice were placed in a Plexiglas cage (37.5 cm×21.5 cm×18 cm) under 50-65 lux light intensity. […]

MK-801 treated mice [3] = assay: Pre-pulse inhibition (PPI) test, MK-801 induced deficit of sensorimotor gating; type: in vivo; conditions: MK-801 0.3 mg/kg i.p.
Description: as §1, §2
Pre-pulse inhibition, using SR-LAB startle apparatus (San Diego Instruments, San Diego, CA, USA), was used to determine the efficacy of compound 66 on attenuating the MK-801 induced deficit of sensorimotor gating function in mice. Under 65 dB background noise, each session was composed of a 5-minute accumulation period followed by 64 trials in four blocks. The pulse alone (PA) trial was a 40 ms, 120 dB white noise burst. In the prepulse (pp)+pulse trials, a 20 ms white noise prepulse stimuli of 71 dB (pp6), 75 dB (pp10), and 83 dB (pp18) were presented 100 ms before a 40 ms 120 dB pulse. The non-stimulus (NS) trials presented the background noise only. The initial and the last blocks were composed of six PA trials, respectively. Two middle blocks consisted of PA, pp+pulse, and NS trials. These trials were presented pseudo-randomly and separated by intertribal intervals of 15 seconds on average (varying between 10 to 20 s). The percentage of prepulse inhibition was evaluated by the following formula: % PPI=100×[(PA score)−(pp-P score)]/(PA score), where the PA score was the average of the PA value in the middle blocks.
as §2, with “74” for “66”, “field test.” for “field.”
as §3, with “45. […]” for “45.”

SARS-CoV-2 3CLPro = SARS-CoV-2 3CLPro (Severe acute respiratory syndrome coronavirus 2 (2019-nCoV) (SARS-CoV-2), UniProt P0DTD1); assay: biochemical; conditions: final DMSO concentration 2%

Sequence of human D-amino acid oxidase (hDAAO) (P14920 whole entry): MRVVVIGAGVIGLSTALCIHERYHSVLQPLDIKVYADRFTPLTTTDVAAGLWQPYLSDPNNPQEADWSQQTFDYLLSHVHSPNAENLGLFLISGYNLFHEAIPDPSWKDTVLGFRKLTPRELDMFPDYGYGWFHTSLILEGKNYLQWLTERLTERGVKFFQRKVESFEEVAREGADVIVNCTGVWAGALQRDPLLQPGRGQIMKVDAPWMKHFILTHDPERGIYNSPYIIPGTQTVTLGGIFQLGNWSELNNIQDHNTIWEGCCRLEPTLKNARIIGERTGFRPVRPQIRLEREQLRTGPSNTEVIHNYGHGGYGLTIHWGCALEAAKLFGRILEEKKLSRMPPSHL

SMILES | IC50 [1] [nM] | effect on MK-801 induced hyper-locomotion vs MK-801 group (MK-801 treated mice [2]; 3 mg/kg and 10 mg/kg oral) | effect on MK-801 induced hyper-locomotion vs MK-801 group (MK-801 treated mice [2]; high dose 30 mg/kg oral) | relief of MK801-induced hyperactivity (MK-801 treated mice [2]; high dose 30 mg/kg oral) [%] | effect on pre-pulse inhibition vs MK-801 group (MK-801 treated mice [3]; 75 and 83 dB pre-pulse, all tested doses 3, 10 and 30 mg/kg oral) | effect on MK-801 induced hyper-locomotion vs MK-801 group (MK-801 treated mice [2]; 30 mg/kg and 100 mg/kg oral) | effect on MK-801 induced hyper-locomotion vs MK-801 group (MK-801 treated mice [2]; low dose 10 mg/kg oral) | relief of MK801-induced hyperactivity (MK-801 treated mice [2]; middle (30 mg/kg) and high dose (100 mg/kg) oral as worded) [%] | IC50 (SARS-CoV-2 3CLPro; read-out: IC50) [nM] | IC50 (SARS-CoV-2 3CLPro; read-out: IC50 (μg/mL) (converted)) [nM] | effect on pre-pulse inhibition vs MK-801 group (MK-801 treated mice [3]; 75 dB and 83 dB pre-pulse, 10 mg/kg oral)
O=C(Oc1cc(C(=O)Oc2cc(C(=O)Oc3cc(C(=O)O[C@H]4OC[C@@H](OC(=O)c5cc(O)c(O)c(OC(=O)c6cc(O)c(O)c(OC(=O)c7cc(O)c(O)c(OC(=O)c8cc(O)c(O)c(O)c8)c7)c6)c5)[C@H](OC(=O)c5cc(O)c(O)c(OC(=O)c6cc(O)c(O)c(OC(=O)c7cc(O)c(O)c(OC(=O)c8cc(O)c(O)c(O)c8)c7)c6)c5)[C@H]4OC(=O)c4cc(O)c(O)c(OC(=O)c5cc(O)c(O)c(OC(=O)c6cc(O)c(O)c(OC(=O)c7cc(O)c(O)c(O)c7)c6)c5)c4)cc(O)c3O)cc(O)c2O)cc(O)c1O)c1cc(O)c(O)c(O)c1 [Compound 121, (2R,3R,4S,5R)-tetrahydro-2H-pyran-2,3,4,5-tetrayl tetrakis(3-((3-((3,4-dihydroxy-5-((3,4,5-trihydroxybenzoyl)oxy)benzoyl)oxy)-4,5-dihydroxybenzoyl)oxy)-4,5-dihydroxybenzoate)] | 2.5 | marginally lower locomotion activity | significantly reduced | 48 | higher potency | – | – | – | – | – | –
O=C(O)c1cc(O)c(O)c(OC(=O)c2cc(O)c(O)c(OC(=O)c3cc(O)c(O)c(OC(=O)c4cc(O)c(O)c(OC(=O)c5cc(O)c(O)c(OC(=O)c6cc(CCc7ccccc7C(F)(F)F)n[nH]6)c5)c4)c3)c2)c1 [Compound 74, 3-((3-((3-((3-((3,4-dihydroxy-5-((3-(2-(trifluoromethyl)phenethyl)-1H-pyrazole-5-carbonyl)oxy)benzoyl)oxy)-4,5-dihydroxybenzoyl)oxy)-4,5-dihydroxybenzoyl)oxy)-4,5-dihydroxybenzoyl)oxy)-4,5-dihydroxybenzoic acid] | 31 | – | – | – | – | significantly reduced | marginally lower locomotion activity | 69 | > 31200 | > 31200 | significantly improved PPI
